Test results: ChEMBL document CHEMBL1201862, “PubChem BioAssay data set” (2004)
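How tested: cells in 96-well plates exposed to compound for 48 hours at five concentrations. Here, GI50 denotes the concentration required for 50% inhibition of growth.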 Active and inactive are the calls of the source. Rule as the data show it: active = GI50 up to about 1.1 µM and inactive = higher.

Assays:
Assay in all cases: DTP human tumour cell line panel, 48 h
[1] = system: SR
[2] = system: SW-620
[3] = system: SF-268
[4] = system: HCT-116
[5] = system: SK-MEL-5
[6] = system: NCI-H226
[7] = system: OVCAR-5
[8] = system: HL-60
[9] = system: NCI-H460
[10] = system: NCI-H522
[11] = system: OVCAR-4
[12] = system: SK-OV-3
[13] = system: RXF 393
[14] = system: DMS-273
[15] = system: MOLT-4
[16] = system: K562
[17] = system: EKVX
[18] = system: KM12
[19] = system: TK-10
[20] = system: SNB-19
[21] = system: DLD-1
[22] = system: KM-20L2
[23] = system: OVCAR-8
[24] = system: LXFL 529
[25] = system: HCC 2998
[26] = system: Malme-3M
[27] = system: SK-MEL-2
[28] = system: U-251
[29] = system: LOX IMVI
[30] = system: HOP-62
[31] = system: UACC-62
[32] = system: 786-0
[33] = system: UACC-257
[34] = system: M19-MEL
[35] = system: M14
[36] = system: COLO 205
[37] = system: OVCAR-3
[38] = system: IGROV-1
[39] = system: SK-MEL-28
[40] = system: CAKI-1
[41] = system: DMS-114
[42] = system: SNB-75
[43] = system: SN12C
[44] = system: SF-295
[45] = system: ACHN
[46] = system: HCT-15
[47] = system: A549
[48] = system: CCRF-CEM
[49] = system: RXF 631
[50] = system: NCI-H23
[51] = system: UO-31
[52] = system: HOP-18
[53] = system: HT-29
[54] = system: SNB-78
[55] = system: A498
[56] = system: SF-539
[57] = system: HOP-92

COc1ccc(C(=O)O)c(Cc2cccc3ccccc23)c1
GI50 [1]: > 100 µM (inactive) | GI50 [2]: > 100 µM (inactive) | GI50 [3]: > 100 µM (inactive) | GI50 [4]: > 100 µM (inactive) | GI50 [5]: > 100 µM (inactive) | GI50 [6]: > 100 µM (inactive) | GI50 [7]: > 100 µM (inactive) | GI50 [8]: > 100 µM (inactive) | GI50 [9]: > 100 µM (inactive) | GI50 [10]: > 100 µM (inactive) | GI50 [11]: > 100 µM (inactive) | GI50 [12]: > 100 µM (inactive) | GI50 [13]: > 100 µM (inactive) | GI50 [14]: > 100 µM (inactive) | GI50 [15]: > 100 µM (inactive) | GI50 [16]: 81.8 µM (inactive) | GI50 [17]: > 100 µM (inactive) | GI50 [18]: > 100 µM (inactive) | GI50 [19]: > 100 µM (inactive) | GI50 [20]: > 100 µM (inactive) | GI50 [21]: > 100 µM (inactive) | GI50 [22]: > 100 µM (inactive) | GI50 [23]: > 100 µM (inactive) | GI50 [24]: > 100 µM (inactive) | GI50 [25]: > 100 µM (inactive) | GI50 [26]: > 100 µM (inactive) | GI50 [27]: > 100 µM (inactive) | GI50 [28]: > 100 µM (inactive) | GI50 [29]: > 100 µM (inactive) | GI50 [30]: > 100 µM (inactive) | GI50 [31]: 85.9 µM (inactive) | GI50 [32]: > 100 µM (inactive) | GI50 [33]: > 100 µM (inactive) | GI50 [34]: > 100 µM (inactive) | GI50 [35]: > 100 µM (inactive) | GI50 [36]: > 100 µM (inactive) | GI50 [37]: 64.3 µM (inactive) | GI50 [38]: > 100 µM (inactive) | GI50 [39]: > 100 µM (inactive) | GI50 [40]: 73.5 µM (inactive) | GI50 [41]: > 100 µM (inactive) | GI50 [42]: > 100 µM (inactive) | GI50 [43]: > 100 µM (inactive) | GI50 [44]: > 100 µM (inactive) | GI50 [45]: > 100 µM (inactive) | GI50 [46]: > 100 µM | GI50 [47]: > 100 µM (inactive) | GI50 [48]: > 100 µM (inactive) | GI50 [49]: > 100 µM (inactive) | GI50 [50]: > 100 µM (inactive) | GI50 [51]: > 100 µM (inactive) | GI50 [52]: > 100 µM (inactive) | GI50 [53]: > 100 µM (inactive)

N#CCC(=O)N/N=C1\C(=O)N(c2ccc(Cl)cc2)C(=O)C(=O)C1c1nc2ccccc2o1 (configuration not stated)
GI50 [1]: > 100 µM (inactive) | GI50 [2]: > 100 µM (inactive) | GI50 [3]: > 100 µM (inactive) | GI50 [4]: > 100 µM (inactive) | GI50 [5]: > 100 µM (inactive) | GI50 [6]: > 100 µM (inactive) | GI50 [8]: > 100 µM (inactive) | GI50 [9]: > 100 µM (inactive) | GI50 [54]: > 100 µM (inactive) | GI50 [10]: > 100 µM (inactive) | GI50 [11]: > 100 µM (inactive) | GI50 [55]: > 100 µM (inactive) | GI50 [12]: > 100 µM (inactive) | GI50 [13]: > 100 µM (inactive) | GI50 [14]: > 100 µM (inactive) | GI50 [56]: > 100 µM (inactive) | GI50 [15]: > 100 µM (inactive) | GI50 [17]: > 100 µM (inactive) | GI50 [18]: > 100 µM (inactive) | GI50 [19]: > 100 µM (inactive) | GI50 [20]: > 100 µM (inactive) | GI50 [21]: > 100 µM (inactive) | GI50 [22]: > 100 µM (inactive) | GI50 [23]: > 100 µM (inactive) | GI50 [24]: > 100 µM (inactive) | GI50 [25]: > 100 µM (inactive) | GI50 [26]: > 100 µM (inactive) | GI50 [27]: > 100 µM (inactive) | GI50 [28]: > 100 µM (inactive) | GI50 [57]: 91.8 µM (inactive) | GI50 [30]: > 100 µM (inactive) | GI50 [31]: > 100 µM (inactive) | GI50 [32]: > 100 µM (inactive) | GI50 [33]: > 100 µM (inactive) | GI50 [34]: > 100 µM (inactive) | GI50 [35]: > 100 µM (inactive) | GI50 [36]: > 100 µM (inactive) | GI50 [37]: > 100 µM (inactive) | GI50 [38]: > 100 µM (inactive) | GI50 [39]: > 100 µM (inactive) | GI50 [40]: > 100 µM (inactive) | GI50 [41]: > 100 µM (inactive) | GI50 [42]: > 100 µM (inactive) | GI50 [43]: > 100 µM (inactive) | GI50 [44]: > 100 µM (inactive) | GI50 [45]: > 100 µM (inactive) | GI50 [46]: > 100 µM | GI50 [47]: > 100 µM (inactive) | GI50 [48]: > 100 µM (inactive) | GI50 [49]: > 100 µM (inactive) | GI50 [50]: > 100 µM (inactive) | GI50 [51]: > 100 µM (inactive) | GI50 [52]: > 100 µM (inactive) | GI50 [53]: > 100 µM (inactive)
